Assay results taken from ChEMBL document CHEMBL2412951, “Resonance light scattering technique as a new tool to determine the binding mode of anticancer drug oridonin to DNA” (Eur J Med Chem, 2013).
Calls of active or inactive are those of the source. The rule behind the calls is not given here.

What was measured:
Format in all cases: nucleic-acid assay
Details in all cases: Bos taurus
DNA [1] = experiment: Binding affinity to calf thymus DNA by Stern-Volmer plot analysis
DNA [2] = experiment: Binding affinity to calf thymus DNA at 10 to 160 uM by resonance light scattering analysis
DNA [3] = experiment: Binding affinity to calf thymus DNA at 5 X 10^-5 M by fluorescence polarization assay
DNA [4] = experiment: Binding affinity to calf thymus DNA at 1 X 10^-5 M by spectrofluorimetric analysis
DNA [5] = experiment: Binding affinity to calf thymus DNA at 90 uM at pH 2 to 8.5 by resonance light scattering analysis
Calf thymus DNA [6] = experiment: Binding affinity to calf thymus dsDNA at 1 X 10^-5 to 2 x 10^-5 M after 10 mins by UV/vis spectrophotometric analysis
DNA [7] = experiment: Binding affinity to calf thymus DNA at 1 ug/ml at pH 2.5 by SEM analysis
Calf thymus DNA [8] = experiment: Binding affinity to calf thymus double helix DNA at 90 uM by resonance light scattering analysis in presence of 0.005 to 0.2 M NaCl
DNA [9] = experiment: Binding affinity to calf thymus DNA at 10^-5 M by atomic force microscopic analysis

For `C=C1C(=O)[C@]23[C@H](O)[C@H]1CC[C@H]2[C@@]12CO[C@]3(O)[C@@H](O)[C@@H]1C(C)(C)CC[C@@H]2O`, the KSV (DNA [1]) was 1.79 ×10⁵ /M, the Activity (DNA [2]) was “Active” and the Activity (DNA [3]) was “Active”. The Activity (DNA [4]) was “Active”, the Activity (DNA [5]) was “Active” and the Activity (Calf thymus DNA [6]) was “Active”. The Activity (DNA [7]) was “Active”, the Activity (Calf thymus DNA [8]) was “Active” and the Activity (DNA [9]) was “Active”.
